In US6676932B2, “Ultraviolet absorbent, photostabilizer, ultraviolet ray-absorbing composition, photostabilized composition and external preparation for skin” (Shiseido Co., Ltd., priority 2001, dated 2004):

Key:
sunburn = assay: Ultraviolet preventive effect, application test on beach in summer (Test Example 2); type: in vivo, human
Experimental: An application test was carried out on beach in summer. Equal volumes of samples were individually coated on back halves of subjects. After exposure to direct daylight, the degree of sunburn was assessed according to the following assessment standards. Each group consists of 10 subjects.
Prominently effective: none or almost no sunburn symptom was observed.
Effective: light sunburn symptom was observed.
Ineffective: strong sunburn symptom was observed.
⊚: prominently effective or effective for 80% or more of the subjects.
◯: prominently effective or effective for 50% or more to less than 80% of the subjects.
Δ: prominently effective or effective for 30% or more to less than 50% of the subjects.
x: prominently effective or effective for less than 30% of the subjects.
The aqueous phase and the alcohol phase were separately prepared and then mixed together.
Propylene glycol was added to and dissolved in ion exchange water. The resulting solution was retained at 70° C. under heating (aqueous phase). Other ingredients were mixed […]. The resulting mixture was melted under heating and retained at 70° C. (oil phase). The oil phase was added to the aqueous phase, for preliminary emulsification with a homomixer to homogeneity. Under thorough mixing, subsequently, the mixture was cooled to 30° C.

skin = assay: Test of skin irritation: 24-hour occlusion patch test (Test Example 3 ii); type: in vivo, human; conditions: 10 wt % ultraviolet absorbent
Experimental: The same samples as in the Test Example 2 were used (at a 10 wt % amount of an ultraviolet absorbent).
20 Healthy male and female volunteers per one group were carried out in a 24-hour occlusion patch test, using a fin chamber on forearm curves. Assessment was done on the basis of the following assessment standards.
Mean score was determined for the assessment on the basis of the following standards.
◯: mean score of more than 0 to less than 1.
Δ: mean score of 1 or more to less than 2.
x: mean score of 2 or more.

[1] = Photostability test of aqueous solutions under daylight (Test Example 4); type: physicochemical; conditions: aqueous solution, daylight for 2 weeks (80 MJ)
Experimental: Aqueous solutions of the pyridazine derivative of the invention were exposed to daylight for 2 weeks (at a daylight exposure of 80 MJ). Subsequently, the remaining ratio and the change of the appearance were examined to measure the ultraviolet spectra with a spectrophotometer (solvent: water; concentration of 10 ppm and optical path length of 1 cm). The area under ultraviolet spectra curve from 290 nm to 400 nm were determined by integration to compare the area with the area before daylight exposure.
The remaining ratio and the change of the area under the ultraviolet spectrum were determined on the basis of the following standards.
⊚: 95% or more of those before daylight exposure.
◯: 90% or more to less than 95% of those before daylight exposure.
Δ: 70% or more to less than 90% of those before daylight exposure.
x: less than 70% of those before daylight exposure.

[2] = Dye stabilization effect under daylight exposure (Test Examples 6-91); type: physicochemical; parameters: key to Δ E: color difference ΔE in Lab vs. color before daylight exposure; key to Appearance (visual determination): ◯: no change; Δ: almost no change; x: change; conditions: photostabilizer 0.05 wt %, daylight exposure (80 MJ)
How it was run: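 Test samples exposed to daylight to 80 MJ; appearance judged visually. Colour measured by spectrophotometer in Lab coordinates, with ΔE calculated relative to pre-exposure values (L1, a1, b1).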

[3] = Stabilization effect on perfume under daylight exposure (Test Examples 92 to 181); type: physicochemical; parameters: key: ◯: no change; Δ: almost no change; x: change; conditions: daylight exposure (80 MJ)
Experimental: Each test sample was prepared for observation of the change of the odor of the test sample (determined by perfume coordinator) before and after daylight exposure (80 MJ).

[4] = Drug stabilization effect under daylight exposure (Test Examples 182 to 211); type: physicochemical; parameters: key to Appearance (visual determination): ◯: no change; Δ: almost no change; x: change; conditions: photostabilizer 0.05 wt %, daylight exposure (80 MJ); for Remaining ratio (%): liquid chromatography
Experimental: For observation of the change of the appearance of each test sample (determination based on visual observation) and the measurement of the remaining ratio by liquid chromatography before and after daylight exposure (80 MJ), the test sample was prepared.

[5] = Dye stabilization effect in blend with sequestering agents (Test Examples 212 to 275); type: physicochemical; conditions: daylight exposure (80 MJ)
How it was run: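 Colour difference (ΔE) measured by spectrophotometer in Lab coordinates before and after daylight exposure (80 MJ), relative to pre-exposure values (L1, a1, b1); appearance change also assessed visually.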

[6] = Drug stabilization effect blended with sequestering agent (Test Examples 372 to 391); type: physicochemical; parameters: key to Appearance (visual determination): ◯: no change; Δ: almost no change; x: change; conditions: drug Glycyrrhizinic acid dipotassium 0.05, photostabilizer blend amount 0.03, daylight exposure (80 MJ)
How it was run: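 Compositions combining the pyridazine derivative with sequestering agents were exposed to daylight (80 MJ). Appearance was judged visually, and drug remaining ratio was measured by liquid chromatography before and after exposure.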

[7] = dye Blue 1 (Brilliant Blue FCF) 0.0001 wt %
[8] = dye Green 3 (Fast Green FCF) 0.001 wt %
[9] = dye Red 227 (Acid Fuchsine D) 0.0001 wt %
[10] = dye Yellow 5 (Sunset Yellow FCF) 0.001 wt %
[11] = dyes Red 106 (Acid red) 0.00001 + Yellow 203 (Quinoline Yellow WS) 0.0001 wt %
[12] = dyes Red 213 (Rhodamine B) 0.00001 + Blue 1 (Brilliant Blue FCF) 0.00001 wt %
[13] = dyes Red 401 (Violanin R) 0.0001 + Blue 1 (Brilliant Blue FCF) 0.00001 wt %
[14] = drug Dipotassium glycyrrhizinate 0.05 wt %
[15] = drug dibutylhydroxytoluene 0.01 wt %
[16] = drug dl-α-tocopherol 2-L-ascorbic acid phosphate diester potassium salt 0.01 wt %

Oc1cc(N2CCOCC2)cnn1 [3-Hydroxy-5-morpholinopyridazine, 3-hydroxy-5-morpholinopyridazine]
Ultraviolet prevention effect (sunburn; cream, blend amount 0.0005 wt %): Δ (prominently effective or effective for 30% or more to less than 50% of the subjects)
Ultraviolet prevention effect (sunburn; cream, blend amount 0.001 wt %): ◯ (prominently effective or effective for 50% or more to less than 80% of the subjects)
Ultraviolet prevention effect (sunburn; cream, blend amount 0.01 wt %): ⊚ (prominently effective or effective for 80% or more of the subjects)
Ultraviolet prevention effect (sunburn; cream, blend amount 1 wt %): ⊚ (prominently effective or effective for 80% or more of the subjects)
Ultraviolet prevention effect (sunburn; cream, blend amount 5 wt %): ⊚ (prominently effective or effective for 80% or more of the subjects)
Ultraviolet prevention effect (sunburn; cream, blend amount 10 wt %): ⊚ (prominently effective or effective for 80% or more of the subjects)
Ultraviolet prevention effect (sunburn; cream, blend amount 20 wt %): ⊚ (prominently effective or effective for 80% or more of the subjects)
Ultraviolet prevention effect (sunburn; lotion, blend amount 0.0005 wt %): Δ (prominently effective or effective for 30% or more to less than 50% of the subjects)
Ultraviolet prevention effect (sunburn; lotion, blend amount 0.001 wt %): ◯ (prominently effective or effective for 50% or more to less than 80% of the subjects)
Ultraviolet prevention effect (sunburn; lotion, blend amount 0.01 wt %): ⊚ (prominently effective or effective for 80% or more of the subjects)
Ultraviolet prevention effect (sunburn; lotion, blend amount 1 wt %): ⊚ (prominently effective or effective for 80% or more of the subjects)
Ultraviolet prevention effect (sunburn; lotion, blend amount 5 wt %): ⊚ (prominently effective or effective for 80% or more of the subjects)
Ultraviolet prevention effect (sunburn; lotion, blend amount 10 wt %): ⊚ (prominently effective or effective for 80% or more of the subjects)
Ultraviolet prevention effect (sunburn; lotion, blend amount 20 wt %): ⊚ (prominently effective or effective for 80% or more of the subjects)
Determination (skin reaction, patch test) (skin; cream): ⊚ (mean score of 0)
Determination (skin reaction, patch test) (skin; lotion): ⊚ (mean score of 0)
Remaining ratio [1]: ⊚ (95% or more of those before daylight exposure)
Change of area under ultraviolet spectrum ([1]; 290 nm to 400 nm): ⊚ (95% or more of those before daylight exposure)
Appearance (visual determination) [2, 7]: ◯
Δ E [2, 7]: 1.31
Appearance (visual determination) [2, 8]: ◯
Δ E [2, 8]: 0.48
Appearance (visual determination) [2, 9]: ◯
Δ E [2, 9]: 0.52
Appearance (visual determination) [2, 10]: ◯
Δ E [2, 10]: 0.52
Appearance (visual determination) [2, 11]: ◯
Δ E [2, 11]: 0.85
Appearance (visual determination) [2, 12]: ◯
Δ E [2, 12]: 1.08
Appearance (visual determination) [2, 13]: ◯
Δ E [2, 13]: 0.44
odor determination ([3]; base perfume Muge, photostabilizer 0.05 wt %): ◯
odor determination ([3]; base perfume Spicy, photostabilizer 0.2 wt %): ◯
odor determination ([3]; natural perfume Jasmine oil, photostabilizer 0.05 wt %): ◯
odor determination ([3]; natural perfume Lavender oil, photostabilizer 0.1 wt %): ◯
odor determination ([3]; natural perfume Ylang ylang oil, photostabilizer 0.2 wt %): ◯
odor determination ([3]; synthetic perfume Citral, photostabilizer 0.1 wt %): ◯
odor determination ([3]; synthetic perfume Linalool, photostabilizer 0.05 wt %): ◯
odor determination ([3]; synthetic perfume Linalyl acetate, photostabilizer 0.1 wt %): ◯
odor determination ([3]; synthetic perfume Rose oxide, photostabilizer 0.2 wt %): ◯
Appearance (visual determination) [4, 14]: ◯
Remaining ratio (%) [4, 14]: 98.9%
Appearance (visual determination) [4, 15]: ◯
Remaining ratio (%) [4, 15]: 98.8%
Appearance (visual determination) [4, 16]: ◯
Remaining ratio (%) [4, 16]: 98.0%
Δ E ([5]; dye Yellow 5 (Sunset Yellow FCF) 0.0001, photostabilizer 0.01, no sequestering agent): 0.61
Δ E ([5]; dye Yellow 5 (Sunset Yellow FCF) 0.0001, photostabilizer 0.01, with ethylenediaminetetraacetate trisodium 0.03): 0.52
Δ E ([5]; dye Yellow 5 (Sunset Yellow FCF) 0.0001, photostabilizer 0.01, with sodium metaphosphate 0.03): 0.55
Δ E ([5]; dye Yellow 5 (Sunset Yellow FCF) 0.0001, photostabilizer 0.01, with sodium polyphosphate 0.03): 0.46
Δ E ([5]; dyes Red 227 (Acid Fuchsine D) 0.0001 + Yellow 203 (Quinoline Yellow WS) 0.0001, no sequestering agent, photostabilizer blend amount 0.01): 1.68
Δ E ([5]; dyes Red 227 (Acid Fuchsine D) 0.0001 + Yellow 203 (Quinoline Yellow WS) 0.0001, with sodium metaphosphate 0.02, photostabilizer blend amount 0.01): 0.98
Appearance (visual determination) ([6]; no sequestering agent): ◯
Appearance (visual determination) ([6]; with sodium metaphosphate 0.03): ◯
